{"source": "ChEMBL document CHEMBL6127029", "about": "“Glutathione-dependent degradation of SMARCA2/4 for targeted lung cancer therapy with improved selectivity” (Eur J Med Chem, 2024)", "key": {"[1]": {"experiment": "Stability of the compound in cell culture medium containing 10% fetal bovine serum assessed as drug degradation at 50 uM incubated for 12 hrs by HPLC analysis", "type": "physicochemical, cell-free", "conditions": "cattle, read-out: Drug degradation"}, "[2]": {"experiment": "Stability of the compound in cell culture medium containing 10% fetal bovine serum at 50 uM incubated for 12 hrs by HPLC analysis", "type": "physicochemical, cell-free", "conditions": "cattle"}, "A549 [3]": {"system": "A549", "experiment": "Cytotoxicity against human A549 cells assessed as inhibition of cell growth incubated for 3 days by MTT assay", "type": "functional, cell-based", "conditions": "A549, 72 h"}, "[4]": {"biological_target": "T1, von Hippel-Lindau disease tumor suppressor/SWI/SNF-related matrix-associated actin-dependent regulator of chromatin subfamily A member 2 (Homo sapiens) (UniProt P51531+P40337)", "T1 sequence (P40337 whole entry, looked up)": "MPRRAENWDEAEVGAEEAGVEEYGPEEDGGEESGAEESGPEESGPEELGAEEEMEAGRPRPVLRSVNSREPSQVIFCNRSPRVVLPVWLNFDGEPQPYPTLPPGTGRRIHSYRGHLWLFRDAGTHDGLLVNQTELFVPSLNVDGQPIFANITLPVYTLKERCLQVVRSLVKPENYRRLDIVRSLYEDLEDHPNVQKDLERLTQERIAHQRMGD", "T1 sequence (P51531 whole entry, looked up)": "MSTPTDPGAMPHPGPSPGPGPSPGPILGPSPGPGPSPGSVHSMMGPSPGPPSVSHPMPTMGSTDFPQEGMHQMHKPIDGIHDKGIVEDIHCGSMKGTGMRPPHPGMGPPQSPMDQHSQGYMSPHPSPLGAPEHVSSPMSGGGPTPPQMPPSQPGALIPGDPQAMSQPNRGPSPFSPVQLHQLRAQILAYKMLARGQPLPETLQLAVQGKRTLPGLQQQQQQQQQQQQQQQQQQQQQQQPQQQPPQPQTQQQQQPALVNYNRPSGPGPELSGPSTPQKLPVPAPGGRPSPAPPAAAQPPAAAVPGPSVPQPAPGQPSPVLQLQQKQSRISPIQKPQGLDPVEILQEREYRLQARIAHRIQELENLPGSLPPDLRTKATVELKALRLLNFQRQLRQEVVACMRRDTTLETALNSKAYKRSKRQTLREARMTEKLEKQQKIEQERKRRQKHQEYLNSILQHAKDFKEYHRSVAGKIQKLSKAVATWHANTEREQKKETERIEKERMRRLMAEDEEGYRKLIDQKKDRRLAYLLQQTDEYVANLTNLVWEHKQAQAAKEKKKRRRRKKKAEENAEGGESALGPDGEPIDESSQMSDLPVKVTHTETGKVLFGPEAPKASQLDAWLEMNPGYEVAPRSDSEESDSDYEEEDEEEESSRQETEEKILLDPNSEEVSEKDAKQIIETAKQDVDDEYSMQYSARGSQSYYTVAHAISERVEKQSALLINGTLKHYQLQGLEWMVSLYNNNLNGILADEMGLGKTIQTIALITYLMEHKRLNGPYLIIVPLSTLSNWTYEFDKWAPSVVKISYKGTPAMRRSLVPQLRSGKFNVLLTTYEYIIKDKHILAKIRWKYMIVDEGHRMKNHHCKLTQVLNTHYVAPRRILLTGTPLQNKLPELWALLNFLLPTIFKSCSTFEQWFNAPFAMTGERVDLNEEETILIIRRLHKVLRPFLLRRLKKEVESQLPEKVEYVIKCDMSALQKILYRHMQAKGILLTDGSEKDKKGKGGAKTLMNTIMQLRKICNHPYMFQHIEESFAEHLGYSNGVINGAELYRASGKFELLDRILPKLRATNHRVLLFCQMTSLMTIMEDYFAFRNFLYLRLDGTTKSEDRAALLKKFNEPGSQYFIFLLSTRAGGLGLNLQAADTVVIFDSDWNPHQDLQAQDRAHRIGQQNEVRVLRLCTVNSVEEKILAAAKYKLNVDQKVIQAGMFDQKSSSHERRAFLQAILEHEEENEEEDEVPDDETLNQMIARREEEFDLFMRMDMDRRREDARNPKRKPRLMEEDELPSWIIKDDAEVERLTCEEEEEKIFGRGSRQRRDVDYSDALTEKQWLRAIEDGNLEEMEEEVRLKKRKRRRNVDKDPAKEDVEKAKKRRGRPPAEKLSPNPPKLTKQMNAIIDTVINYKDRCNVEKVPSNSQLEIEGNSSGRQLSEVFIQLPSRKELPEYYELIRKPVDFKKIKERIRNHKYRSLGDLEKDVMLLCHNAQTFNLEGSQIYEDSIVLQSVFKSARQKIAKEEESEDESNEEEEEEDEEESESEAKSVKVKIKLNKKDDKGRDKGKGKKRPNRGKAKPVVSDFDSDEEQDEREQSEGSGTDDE", "experiment": "PROTAC activity at VHL/SMARCA2 in human HEK-293T cells assessed as induction of SMARCA2 degradation at 1 uM by Western blotting analysis", "type": "cell-based", "conditions": "TDE = time-dependent effect"}, "[5]": {"biological_target": "T1, von Hippel-Lindau disease tumor suppressor/SWI/SNF-related matrix-associated actin-dependent regulator of chromatin subfamily A member 2 (Homo sapiens)", "experiment": "PROTAC activity at VHL/SMARCA2 in human HEK-293T cells assessed as induction of SMARCA2 degradation at 1 uM incubated for 24 hrs by Western blotting analysis relative to control", "type": "cell-based"}, "[6]": {"biological_target": "T1, von Hippel-Lindau disease tumor suppressor/SWI/SNF-related matrix-associated actin-dependent regulator of chromatin subfamily A member 2 (Homo sapiens)", "experiment": "PROTAC activity at VHL/SMARCA2 in human 786-0 cells harboring mutated VHL assessed as induction of SMARCA2 degradation at 0.1 to 5 uM incubated for 8 hrs by Western blotting analysis", "type": "cell-based", "conditions": "dose 0.1-5 µM"}, "HuLEC-5a": {"system": "HuLEC-5a", "experiment": "Inhibition of cell migration in human HuLEC-5a cells at 10 uM incubated for 36 hrs by scratch wound healing based fluorescent microscopic analysis", "type": "functional"}, "[7]": {"biological_target": "T1, von Hippel-Lindau disease tumor suppressor/SWI/SNF-related matrix-associated actin-dependent regulator of chromatin subfamily A member 2 (Homo sapiens)", "experiment": "PROTAC activity at VHL/SMARCA2 in human HuLEC-5a cells assessed as induction of SMARCA2 degradation at 1 uM by Western blotting analysis", "type": "cell-based", "conditions": "TDE = time-dependent effect"}, "[8]": {"biological_target": "T2, von Hippel-Lindau disease tumor suppressor/SWI/SNF-related matrix-associated actin-dependent regulator of chromatin subfamily A member 4 (Homo sapiens) (UniProt P51532+P40337)", "T2 sequence (P40337 whole entry, looked up)": "as the sequence (P40337 whole entry, looked up) above", "T2 sequence (P51532 whole entry, looked up)": "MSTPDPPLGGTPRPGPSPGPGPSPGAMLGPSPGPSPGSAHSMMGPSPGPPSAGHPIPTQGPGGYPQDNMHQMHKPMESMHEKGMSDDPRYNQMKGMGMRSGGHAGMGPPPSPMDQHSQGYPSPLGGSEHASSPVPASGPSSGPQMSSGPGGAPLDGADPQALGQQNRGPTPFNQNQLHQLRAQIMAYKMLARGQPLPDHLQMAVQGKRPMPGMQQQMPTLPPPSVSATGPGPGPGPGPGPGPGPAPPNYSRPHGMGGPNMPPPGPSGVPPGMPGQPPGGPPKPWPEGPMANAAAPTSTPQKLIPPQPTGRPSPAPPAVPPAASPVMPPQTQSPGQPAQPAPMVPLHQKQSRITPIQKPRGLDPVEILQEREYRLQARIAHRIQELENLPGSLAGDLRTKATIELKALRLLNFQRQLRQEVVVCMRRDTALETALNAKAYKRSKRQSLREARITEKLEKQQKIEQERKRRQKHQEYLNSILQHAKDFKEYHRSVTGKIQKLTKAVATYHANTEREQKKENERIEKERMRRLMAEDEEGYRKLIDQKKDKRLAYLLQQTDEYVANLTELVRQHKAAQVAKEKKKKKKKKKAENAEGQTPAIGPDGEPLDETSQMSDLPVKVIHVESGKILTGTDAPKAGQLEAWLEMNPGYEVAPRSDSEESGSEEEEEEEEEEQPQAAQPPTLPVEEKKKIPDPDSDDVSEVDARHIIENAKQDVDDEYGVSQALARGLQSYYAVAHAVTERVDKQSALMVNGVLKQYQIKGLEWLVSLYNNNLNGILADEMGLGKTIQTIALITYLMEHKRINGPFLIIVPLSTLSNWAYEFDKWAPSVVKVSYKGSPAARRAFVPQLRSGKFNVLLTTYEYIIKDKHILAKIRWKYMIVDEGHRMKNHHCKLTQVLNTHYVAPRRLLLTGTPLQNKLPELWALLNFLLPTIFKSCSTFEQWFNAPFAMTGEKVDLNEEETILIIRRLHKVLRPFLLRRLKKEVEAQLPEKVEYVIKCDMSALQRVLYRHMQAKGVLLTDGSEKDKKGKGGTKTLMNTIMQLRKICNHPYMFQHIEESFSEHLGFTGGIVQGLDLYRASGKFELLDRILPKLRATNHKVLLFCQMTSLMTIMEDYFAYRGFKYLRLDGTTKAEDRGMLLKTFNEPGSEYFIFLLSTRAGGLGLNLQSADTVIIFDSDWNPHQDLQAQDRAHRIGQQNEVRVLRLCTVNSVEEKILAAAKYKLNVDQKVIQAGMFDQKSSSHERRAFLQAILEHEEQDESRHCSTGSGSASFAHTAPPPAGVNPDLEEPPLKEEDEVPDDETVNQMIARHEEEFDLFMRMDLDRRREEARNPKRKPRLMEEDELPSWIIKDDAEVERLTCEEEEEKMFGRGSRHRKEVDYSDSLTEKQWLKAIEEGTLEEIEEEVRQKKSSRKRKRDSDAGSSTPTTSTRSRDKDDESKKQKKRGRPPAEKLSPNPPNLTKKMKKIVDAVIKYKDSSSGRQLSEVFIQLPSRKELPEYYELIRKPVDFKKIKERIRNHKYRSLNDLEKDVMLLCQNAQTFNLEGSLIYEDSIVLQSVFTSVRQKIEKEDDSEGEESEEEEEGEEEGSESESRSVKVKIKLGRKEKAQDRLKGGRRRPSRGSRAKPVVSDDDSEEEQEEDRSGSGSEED", "experiment": "PROTAC activity at VHL/SMARCA4 in human HEK-293T cells assessed as induction of SMARCA4 degradation at 1 uM incubated for 24 hrs by Western blotting analysis relative to control", "type": "cell-based"}, "[9]": {"biological_target": "T1, von Hippel-Lindau disease tumor suppressor/SWI/SNF-related matrix-associated actin-dependent regulator of chromatin subfamily A member 2 (Homo sapiens)", "experiment": "PROTAC activity at VHL/SMARCA2 in human A549 cells harboring shRNA mediated VHL knockdown assessed as induction of SMARCA2 degradation at 0.1 to 2 uM incubated for 8 hrs by Western blotting analysis", "type": "cell-based", "conditions": "dose 0.1-2 µM"}, "[10]": {"experiment": "Cytotoxicity against human HuLEC-5a cells assessed as inhibition of cell growth incubated for 3 days by MTT assay", "type": "toxicity, cell-based"}, "[11]": {"biological_target": "T1, von Hippel-Lindau disease tumor suppressor/SWI/SNF-related matrix-associated actin-dependent regulator of chromatin subfamily A member 2 (Homo sapiens)", "experiment": "PROTAC activity at VHL/SMARCA2 in human A549 cells assessed as induction of SMARCA2 degradation at 1 uM pretreated with MG132 followed by compound addition and measured after 8 hrs by Western blotting analysis", "type": "cell-based"}, "[12]": {"biological_target": "T2, von Hippel-Lindau disease tumor suppressor/SWI/SNF-related matrix-associated actin-dependent regulator of chromatin subfamily A member 4 (Homo sapiens)", "experiment": "PROTAC activity at VHL/SMARCA4 in human 786-0 cells harboring mutated VHL assessed as induction of SMARCA4 degradation at 0.1 to 5 uM incubated for 8 hrs by Western blotting analysis", "type": "cell-based", "conditions": "dose 0.1-5 µM"}, "NCI-H1299": {"system": "NCI-H1299", "experiment": "Cytotoxicity against human NCI-H1299 cells assessed as inhibition of cell growth incubated for 3 days by MTT assay", "type": "functional, cell-based", "conditions": "NCI-H1299, 72 h"}, "A549 [13]": {"system": "A549", "experiment": "Inhibition of cell migration in human A549 cells at 10 uM incubated for 36 hrs by scratch wound healing based fluorescent microscopic analysis", "type": "functional"}, "[14]": {"biological_target": "T1, von Hippel-Lindau disease tumor suppressor/SWI/SNF-related matrix-associated actin-dependent regulator of chromatin subfamily A member 2 (Homo sapiens)", "experiment": "PROTAC activity at VHL/SMARCA2 in human NCI-H1299 cells harboring shRNA mediated VHL knockdown assessed as induction of SMARCA2 degradation at 0.1 to 2 uM incubated for 8 hrs by Western blotting analysis", "type": "cell-based", "conditions": "dose 0.1-2 µM"}, "[15]": {"biological_target": "T1, von Hippel-Lindau disease tumor suppressor/SWI/SNF-related matrix-associated actin-dependent regulator of chromatin subfamily A member 2 (Homo sapiens)", "experiment": "PROTAC activity at VHL/SMARCA2 in human A549 cells assessed as induction of SMARCA2 degradation at 1 uM pretreated with MLN4924 followed by compound addition and measured after 8 hrs by Western blotting analysis", "type": "cell-based"}, "[16]": {"biological_target": "T1, von Hippel-Lindau disease tumor suppressor/SWI/SNF-related matrix-associated actin-dependent regulator of chromatin subfamily A member 2 (Homo sapiens)", "experiment": "PROTAC activity at VHL/SMARCA2 in human NCI-H1299 cells assessed as induction of SMARCA2 degradation at 1 uM by Western blotting analysis", "type": "cell-based", "conditions": "TDE = time-dependent effect"}, "[17]": {"biological_target": "T2, von Hippel-Lindau disease tumor suppressor/SWI/SNF-related matrix-associated actin-dependent regulator of chromatin subfamily A member 4 (Homo sapiens)", "experiment": "PROTAC activity at VHL/SMARCA4 in human HuLEC-5a cells assessed as induction of SMARCA4 degradation at 1 uM by Western blotting analysis", "type": "cell-based", "conditions": "TDE = time-dependent effect"}, "[18]": {"biological_target": "T1, von Hippel-Lindau disease tumor suppressor/SWI/SNF-related matrix-associated actin-dependent regulator of chromatin subfamily A member 2 (Homo sapiens)", "experiment": "PROTAC activity at VHL/SMARCA2 in human A549 cells assessed as induction of SMARCA2 degradation at 1 uM by Western blotting analysis", "type": "cell-based", "conditions": "TDE = time-dependent effect"}, "[19]": {"biological_target": "T1, von Hippel-Lindau disease tumor suppressor/SWI/SNF-related matrix-associated actin-dependent regulator of chromatin subfamily A member 2 (Homo sapiens)", "experiment": "PROTAC activity at VHL/SMARCA2 in human A549 cells assessed as induction of SMARCA2 degradation at 1 uM incubated for 24 hrs by Western blotting analysis", "type": "cell-based"}, "[20]": {"biological_target": "T2, von Hippel-Lindau disease tumor suppressor/SWI/SNF-related matrix-associated actin-dependent regulator of chromatin subfamily A member 4 (Homo sapiens)", "experiment": "PROTAC activity at VHL/SMARCA4 in human HEK-293T cells assessed as induction of SMARCA4 degradation at 1 uM by Western blotting analysis", "type": "cell-based", "conditions": "TDE = time-dependent effect"}}, "note": "Active and inactive are the calls of the source. No cut-off for these calls is given here.", "data": [{"smiles": "Cc1ncsc1-c1ccc(CNC(=O)[C@@H]2C[C@@H](O)CN2C(=O)[C@@H](NC(=O)CN2CCN(c3cc(-c4ccccc4OS(=O)(=O)c4ccc([N+](=O)[O-])c(F)c4)nnc3N)CC2)C(C)(C)C)cc1", "values": [{"measurement": "degraded at 12 h, 50 µM", "setting": "[1]", "result": "> 60", "unit": "%"}, {"measurement": "Stability", "setting": "[2]", "result": "Unstable"}]}, {"smiles": "Cc1ncsc1-c1ccc(CNC(=O)[C@@H]2C[C@@H](O)CN2C(=O)[C@@H](NC(=O)CN2CCN(c3cc(-c4ccccc4O)nnc3N)CC2)C(C)(C)C)cc1", "values": [{"measurement": "IC50", "setting": "A549 [3]", "result": 1300, "unit": "nM"}, {"measurement": "Activity", "setting": "[4]", "result": "Tde"}, {"measurement": "Activity", "setting": "[5]", "result": "< 10", "unit": "%"}, {"measurement": "Activity", "setting": "[6]", "result": "inactive"}, {"measurement": "inhibition", "setting": "HuLEC-5a", "result": "inactive"}, {"measurement": "Activity", "setting": "[7]", "result": "Tde"}, {"measurement": "Activity", "setting": "[8]", "result": "< 10", "unit": "%"}, {"measurement": "Activity", "setting": "[9]", "result": "inactive"}, {"measurement": "IC50 at 3 days", "setting": "[10]", "result": 24.5, "unit": "µM"}, {"measurement": "Activity", "setting": "[11]", "result": "inactive"}, {"measurement": "Activity", "setting": "[12]", "result": "inactive"}, {"measurement": "IC50", "setting": "NCI-H1299", "result": 1400, "unit": "nM"}, {"measurement": "inhibition", "setting": "A549 [13]", "result": "Active"}, {"measurement": "Activity", "setting": "[14]", "result": "inactive"}, {"measurement": "Activity", "setting": "[15]", "result": "inactive"}, {"measurement": "Activity", "setting": "[16]", "result": "Tde"}, {"measurement": "Activity", "setting": "[17]", "result": "Tde"}, {"measurement": "Activity", "setting": "[18]", "result": "Tde"}, {"measurement": "Activity", "setting": "[19]", "result": "Active"}, {"measurement": "Activity", "setting": "[20]", "result": "Tde"}]}]}
